Test results from patent US10899699B2, “Vinylogous phenethylamines as neurotransmitter releasers” (RESEARCH TRIANGLE INSTITUTE, priority 2016, dated 2021).
Where two headings read alike, the source gives them in different places.

How the values were obtained:
[1] = target: T1, Dopamine Transporter (DAT) (Rattus norvegicus, UniProt P23977); experiment: DAT release assay, rat brain synaptosomes; type: biochemical; settings: for EC50: release of [3H]MPP+ from rat striatum synaptosomes, mean±SD (n=3)
T1 construct: Synaptosomes were prepared from rat striatum for the DAT assays; from tissue; host or cells: rat striatum synaptosomes
T1 sequence (P23977 whole entry): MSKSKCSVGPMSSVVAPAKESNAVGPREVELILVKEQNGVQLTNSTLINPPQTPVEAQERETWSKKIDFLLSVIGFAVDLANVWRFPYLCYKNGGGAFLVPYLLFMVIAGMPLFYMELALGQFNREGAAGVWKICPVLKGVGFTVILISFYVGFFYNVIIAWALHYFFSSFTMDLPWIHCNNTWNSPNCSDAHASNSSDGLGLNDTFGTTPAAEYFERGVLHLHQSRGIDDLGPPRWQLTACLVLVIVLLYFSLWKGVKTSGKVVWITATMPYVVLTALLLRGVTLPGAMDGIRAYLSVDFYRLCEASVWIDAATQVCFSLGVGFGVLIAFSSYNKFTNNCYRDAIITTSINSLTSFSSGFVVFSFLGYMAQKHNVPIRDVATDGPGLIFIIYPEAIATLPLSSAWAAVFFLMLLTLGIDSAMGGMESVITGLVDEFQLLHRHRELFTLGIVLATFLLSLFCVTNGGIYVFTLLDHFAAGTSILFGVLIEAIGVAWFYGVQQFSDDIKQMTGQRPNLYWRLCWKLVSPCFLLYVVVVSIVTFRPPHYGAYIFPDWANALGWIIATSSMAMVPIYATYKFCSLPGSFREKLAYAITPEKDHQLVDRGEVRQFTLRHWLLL
Procedure: (§1) BAT activity was measured using synaptosomes prepared from rat brain homogenates according to the protocol developed by Rothman and co-workers (Rothman, et al., Eur. J. Pharmacol. 2002, 447(1), 51). Compounds were first screened in uptake inhibition and release assays to determine the exact mode of drug action. […] Substrate reversal experiments were conducted to validate substrate activity. The analogs were also tested for agonist activity at the serotonin-2 receptor subtypes (5-HT2A, 5-HT2B, 5-HT2C) using in vitro calcium mobilization assays in transfected HEK293 cells as previously described. These receptors are associated with the pharmacology of abused drugs, as 5-HT2A agonists are thought to be hallucinogenic while […] are associated with valvular heart disease and pulmonary hypertension; activity at these receptors would be considered off-target liabilities. On the other hand, agonists at 5-HT2C may be beneficial as potential pharmacotherapies for drug abuse and appetite suppression.
(§2) All animal studies were conducted in facilities fully accredited by the Association for the Assessment and Accreditation of Laboratory Animal Care (AAALAC) and experiments were performed in accordance with the Institutional Care and Use Committee (IACUC) of the National Institute on Drug Abuse Intramural Research Program (NIDA IRP). Rats were euthanized by CO2 narcosis, and brains were processed to yield synaptosomes as previously described (Rothman, R B, et al., Eur. J. Pharmacol. 2002, 447(1), 51.). Synaptosomes were prepared from rat striatum for the DAT assays, whereas synaptosomes were prepared from whole brain minus striatum and cerebellum for the NET and SERT assays.
(§3) For release assays, 9 nM [^3H]1-methyl-4-phenylpyridinium ([^3H]MPP+) was used as the radiolabeled substrate for DAT and NET, while 5 nM [^3H]5-HT was used as a substrate for SERT. All buffers used in the release assay methods contained 1 μM reserpine to block vesicular uptake of substrates. The selectivity of release assays was optimized for a single transporter by including unlabeled blockers to prevent the uptake of [^3H]MPP+ or [^3H]5-HT by competing transporters. Synaptosomes were preloaded with radiolabeled substrate in Krebs-phosphate buffer for 1 h (steady state). Release assays were initiated by adding 850 μL of preloaded synaptosomes to 150 μL of test drug. Release was terminated by vacuum filtration and retained radioactivity was quantified as described for uptake inhibition. Concentration-response curves were generated to yield EC50 values.
(§4) Substrate reversal experiments were conducted to validate substrate activity. The releasing ability of test compounds was tested at an EC80 concentration in the absence and presence of an uptake inhibitor (250 nM […] for DAT, 166 nM desipramine for NET, 100 nM fluoxetine for SERT).

[2] = target: T2, Serotonin Transporter (SERT) (Rattus norvegicus, UniProt P31652); experiment: SERT release assay, rat brain synaptosomes; type: biochemical; settings: for EC50: release of [3H]5-HT from rat brain synaptosomes, mean±SD (n=3)
T2 construct: synaptosomes were prepared from whole brain minus striatum and cerebellum for the NET and SERT assays; from tissue; host or cells: rat whole brain minus striatum and cerebellum, synaptosomes
T2 sequence (P31652 whole entry): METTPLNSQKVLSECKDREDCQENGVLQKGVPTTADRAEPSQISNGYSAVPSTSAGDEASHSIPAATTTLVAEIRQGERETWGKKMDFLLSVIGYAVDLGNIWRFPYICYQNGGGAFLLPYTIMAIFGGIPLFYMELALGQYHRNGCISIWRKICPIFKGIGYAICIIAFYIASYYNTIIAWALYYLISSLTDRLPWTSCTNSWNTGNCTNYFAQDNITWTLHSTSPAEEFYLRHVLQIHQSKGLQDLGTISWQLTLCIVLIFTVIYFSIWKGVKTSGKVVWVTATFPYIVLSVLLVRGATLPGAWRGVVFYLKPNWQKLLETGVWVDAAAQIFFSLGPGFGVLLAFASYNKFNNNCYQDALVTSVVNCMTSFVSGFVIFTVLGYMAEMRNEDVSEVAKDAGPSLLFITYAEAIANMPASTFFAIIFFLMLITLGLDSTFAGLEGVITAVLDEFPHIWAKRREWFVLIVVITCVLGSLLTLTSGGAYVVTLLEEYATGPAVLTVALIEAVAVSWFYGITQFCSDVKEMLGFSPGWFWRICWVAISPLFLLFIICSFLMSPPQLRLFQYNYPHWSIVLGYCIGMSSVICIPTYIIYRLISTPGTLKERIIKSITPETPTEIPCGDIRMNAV
Procedure: as §1, §2, §3, §4

[3] = target: Norepinephrine Transporter (NET) (Rattus norvegicus, UniProt Q9WTR4); type: biochemical; settings: read-out: EC50, (nM ± SD) NET; release of [3H]MPP+ from rat brain synaptosomes; mean±SD (n=3)
[4] = system: Norepinephrine Transporter (NET); type: biochemical, rat
human 5-HT2A receptor = target: T3, human 5-HT2A receptor (Homo sapiens, UniProt P28223); experiment: 5-HT2A calcium mobilization assay in HEK293 cells (agonist activity); type: cell-based
T3 construct: expressed in transfected cells
T3 sequence (P28223 whole entry): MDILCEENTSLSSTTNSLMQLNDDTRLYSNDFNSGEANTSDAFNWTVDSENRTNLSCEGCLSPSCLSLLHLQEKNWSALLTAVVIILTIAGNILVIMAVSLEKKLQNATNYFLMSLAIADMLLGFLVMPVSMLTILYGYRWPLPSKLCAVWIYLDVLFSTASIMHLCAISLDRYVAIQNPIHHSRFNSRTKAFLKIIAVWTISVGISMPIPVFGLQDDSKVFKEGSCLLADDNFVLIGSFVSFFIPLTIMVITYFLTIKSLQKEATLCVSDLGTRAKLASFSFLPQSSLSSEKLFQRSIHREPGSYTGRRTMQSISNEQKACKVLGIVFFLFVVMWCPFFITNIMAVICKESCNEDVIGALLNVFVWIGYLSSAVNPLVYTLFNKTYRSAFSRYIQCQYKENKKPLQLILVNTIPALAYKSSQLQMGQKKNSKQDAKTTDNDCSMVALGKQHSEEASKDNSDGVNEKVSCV
Procedure: (§5) BAT activity was measured using synaptosomes prepared from rat brain homogenates according to the protocol developed by Rothman and co-workers (Rothman, et al., Eur. J. Pharmacol. 2002, 447(1), 51). Compounds were first screened in uptake inhibition and release assays to determine the exact mode of drug action. Compounds active in both assays are releasers while compounds active only in the uptake inhibition assay are uptake inhibitors. Active compounds were then fully characterized by running 8-point concentration response curves in the assay corresponding to their mechanism of action. Substrate reversal experiments were conducted to validate substrate activity. The analogs were also tested for agonist activity at the serotonin-2 receptor subtypes (5-HT2A, 5-HT2B, 5-HT2C) using in vitro calcium mobilization assays in transfected HEK293 cells as previously described. These receptors are associated with the pharmacology of abused drugs, as 5-HT2A agonists are thought to be hallucinogenic while […] are associated with valvular heart disease and pulmonary hypertension; activity at these receptors would be considered off-target liabilities. On the other hand, agonists at 5-HT2C may be beneficial as potential pharmacotherapies for drug abuse and appetite suppression.
(§6) HEK293 cells stably expressing the human 5-HT2A receptor were used. The day before the assay, cells were plated into 96-well black-walled assay plates at 40,000 cells/well in DMEM-HG supplemented with 10% fetal bovine serum, 100 units of penicillin and streptomycin, and 15 mM HEPES. The cells were incubated overnight at 37° C., 5% CO2. Prior to the assay, Calcium 5 dye (Molecular Devices) was reconstituted according to the manufacturer instructions. The reconstituted dye was diluted 1:40 in pre-warmed (37° C.) assay buffer (1×HBSS, 20 mM HEPES, 2.5 mM probenecid, pH 7.4 at 37° C.). Growth medium was removed and the cells were gently washed with 100 μL of pre-warmed (37° C.) assay buffer. The cells were incubated for 45 minutes at 37° C., 5% CO2 in 200 μL of the diluted Calcium 5 dye. Serial dilutions of the test compounds were prepared in 1% DMSO/assay buffer, aliquoted into 96-well polypropylene plates, and warmed to 37° C. After the dye-loading incubation period, the cells were pre-treated with 25 μL of 9% DMSO/assay buffer and incubated for 15 min at 37° C. After the pre-treatment incubation period, the plate was read with a FlexStation® II (Molecular Devices). Calcium-mediated changes in fluorescence were monitored every 1.52 seconds over a 60 second time period, with the FlexStation® II adding 25 μL of test compound dilutions at the 19 second time point (excitation at 485 nm, detection at 525 nm). Peak kinetic reduction (SoftMax, Molecular Devices) relative fluorescent units (RFU) were plotted against compound concentration. Data were fit to the appropriate three-parameter logistic curve to generate EC50 values (GraphPad Prism 6.0, GraphPad Software, Inc., San Diego, Calif.). 5-HT2B and 5-HT2C calcium mobilization assays were run in the same manner with stable 5-HT2B and 5-HT2C HEK293 cells except that 35,000 cells/well were used instead of 40,000 cells/well.

5-HT2B = target: T4, 5-HT2B (Homo sapiens, UniProt P41595); experiment: 5-HT2B calcium mobilization assay in HEK293 cells (agonist activity); type: cell-based
T4 construct: expressed in transfected cells
T4 sequence (P41595 whole entry): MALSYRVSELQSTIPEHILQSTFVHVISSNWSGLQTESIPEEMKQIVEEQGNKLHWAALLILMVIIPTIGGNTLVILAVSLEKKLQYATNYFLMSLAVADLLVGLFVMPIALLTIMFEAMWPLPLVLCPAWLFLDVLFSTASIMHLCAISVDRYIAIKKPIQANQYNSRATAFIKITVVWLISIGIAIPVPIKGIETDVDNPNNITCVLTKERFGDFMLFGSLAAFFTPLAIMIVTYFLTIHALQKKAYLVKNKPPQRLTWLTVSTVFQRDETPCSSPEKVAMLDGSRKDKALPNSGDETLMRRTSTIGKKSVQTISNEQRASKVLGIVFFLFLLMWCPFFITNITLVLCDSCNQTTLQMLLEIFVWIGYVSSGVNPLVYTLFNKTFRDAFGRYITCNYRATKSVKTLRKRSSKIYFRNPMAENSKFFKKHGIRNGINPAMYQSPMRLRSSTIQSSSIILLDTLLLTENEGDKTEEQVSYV
Procedure: as §5, §6

5-HT2C = target: T5, 5-HT2C (Homo sapiens, UniProt P28335); experiment: 5-HT2C calcium mobilization assay in HEK293 cells (agonist activity); type: cell-based
T5 construct: expressed in transfected cells
T5 sequence (P28335 33-458): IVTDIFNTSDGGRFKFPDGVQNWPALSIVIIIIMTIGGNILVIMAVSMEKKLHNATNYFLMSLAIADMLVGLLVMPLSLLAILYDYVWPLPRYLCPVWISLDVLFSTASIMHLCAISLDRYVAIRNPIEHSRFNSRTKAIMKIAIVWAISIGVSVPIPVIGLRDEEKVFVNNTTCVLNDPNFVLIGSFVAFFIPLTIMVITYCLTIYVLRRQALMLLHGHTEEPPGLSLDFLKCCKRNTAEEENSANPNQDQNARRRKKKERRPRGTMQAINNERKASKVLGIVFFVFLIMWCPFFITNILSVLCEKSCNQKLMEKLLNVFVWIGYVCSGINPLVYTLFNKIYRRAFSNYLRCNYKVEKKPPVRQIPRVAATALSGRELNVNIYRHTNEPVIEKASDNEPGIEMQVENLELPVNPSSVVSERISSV
Procedure: as §5, §6

[5] = rhesus monkeys, chronic treatment; progressive-ratio, choice, second-order schedules; cited from earlier work
[6] = double-blind, placebo-controlled clinical trial; cited from earlier work
cortical 5-HT = settings: high doses; cited from earlier work
[7] = rats; cited from earlier work
[8] = abstinent cocaine-dependent patients; cited from earlier work
[9] = calcium mobilization, agonist, HEK293, read-out: 5-HT2A EC50, (nM ± SEM)
[10] = calcium mobilization, agonist, HEK293, read-out: 5-HT2B EC50, (nM ± SEM)
[11] = calcium mobilization, agonist, HEK293, read-out: 5-HT2C EC50, (nM ± SEM)
[12] = calcium mobilization, agonist, HEK293

Row | SMILES | EC50 [1] [nM] | EC50 [3] [nM] | selectivity for releasing NE relative to DA (NET compared to DAT) [4] [fold] | EC50 (human 5-HT2A receptor; [9]) [nM] | EC50 (5-HT2B; [10]) [nM] | EC50 (5-HT2C; [11]) [nM] | 5-HT2A EC50, (nM ± SEM) (human 5-HT2A receptor; [12]) | also measured
1 | C[C@@H](N)C/C=C\c1ccccc1 [R-8, (1R,3Z)-1-Methyl-4-phenyl-but-3-enylamine] | 1420 | 211 | 6.7 | > 10000 | > 10000 | > 10000 | – | potency for releasing 5-HT relative to DA (SERT/DAT selectivity) [2]: 1.2 fold; EC50 [2]: 1160 ± 160 nM; EC50 (human 5-HT2A receptor; calcium mobilization, read-out: 5-HT2A EC50): > 10000 nM
2 | C[C@H](N)C/C=C\c1ccccc1 [S-8, (1S,3Z)-1-Methyl-4-phenyl-but-3-enylamine] | 304 | 170 | – | 1600 | > 10000 | – | – | potency for releasing DA relative to 5-HT [1]: 2.2 fold; EC50 [2]: 863 ± 86 nM; Emax (human 5-HT2A receptor; HEK293, calcium mobilization, efficacy): 102%; Emax at 10 µM (5-HT2C; HEK293, at 10 μM, read-out: 5-HT2C activity relative to the control 5-HT EMAX): < 50%
3 | C[C@H](N)Cc1ccccc1 [compound 1, S(+)-amphetamine, reference compound] | – | – | – | – | – | – | inactive | EC50 (human 5-HT2A receptor): > 10000 nM; EC50 (5-HT2B): > 10000 nM; 5-HT2B EC50, (nM ± SEM) (5-HT2B; [12]): inactive; EC50 (5-HT2C): > 10000 nM; 5-HT2C EC50, (nM ± SEM) (5-HT2C; [12]): inactive; cocaine self-administration compared to food-maintained responding [5]: selective dose-dependent decrease in cocaine self-administration; cocaine use [6]: decrease in cocaine use
4 | CC(N)Cc1ccc2ccccc2c1 (stereo not drawn) [compound 2] | – | – | – | – | – | – | – | depletion of cortical 5-HT (cortical 5-HT): do not cause depletion of cortical 5-HT
5 | CC(N)/C=C/c1ccccc1 (stereo not drawn) [compound 10, (2E)-1-Methyl-3-phenyl-prop-2-enylamine] | 666 | 308 ± 100 | 2.2 | > 10000 | > 10000 | > 10000 | inactive | –
6 | CC(N)/C=C\c1ccccc1 (stereo not drawn) [compound 11, (2Z)-1-Methyl-3-phenyl-prop-2-enylamine] | 1110 ± 150 | 301 ± 76 | 3.7 | > 10000 | > 10000 | > 10000 | inactive | –
7 | CCNC(C)Cc1cccc(C(F)(F)F)c1 (stereo not drawn) [fenfluramine] | – | – | – | – | – | – | – | cue-reinstated cocaine-seeking behavior [7]: dose-dependently attenuates cue-reinstated cocaine-seeking behavior; cocaine craving [8]: significantly reduces cocaine craving
